According to US20160024414A1, “IONIC LIQUIDS AS L[…] BASE STOCKS, COBASE STOCKS AND MULTI[…]” ([…] AND ENGINEERING COMPANY, priority 2012, published 2016):

Assays:
[1] = Kinematic viscosity (ASTM D-445); type: physicochemical
Method: The kinematic viscosity (Kv) of the ionic liquid products of Examples 2-5, 7 and 8 was measured using ASTM standards D-445 and reported at temperatures of 100° C. (Kv at 100° C.) or 40° C. (Kv at 40° C.). The viscosity index (VI) was measured according to ASTM standard D-2270 using the measured kinematic viscosities for each product.

1-butyl-3-hexylimidazolium bis(2-ethylhexyl) phosphate [Example 7]
solubility in AN (alkylated naphthalene) (solvent: AN (alkylated naphthalene)): 5%

dihexadecyldimethylammonium bis(2-ethylhexyl) phosphate [Example 8]
solubility in PAO4 (in words) (solvent: PAO4): soluble

tetradecylammonium bis(2-ethylhexyl) phosphate [Example 4]
Kv100 (kinematic viscosity at 100° C.) [1]: > 150 cSt
